Measurements reported in US20240158446A1, “CYCLIC COMPOUND HAVING SELECTIVE INHIBITORY ACTION ON KRAS OVER HRAS AND NRAS” (CHUGAI SEIYAKU KABUSHIKI KAISHA, priority 2021, published 2024).
Where two headings read alike, the source gives them in different places. *1 amine or outer side, *2 acyl side, *3 side chain or, on linkers, in order; H or OH if unused. Where a SMILES comes first, the peptide text is derived from it. Bridges are numbered along the chain shown (N, C = ends). [ ]: non-standard residue; d: D form. The star is where a group is joined. hPhe(3,5-F2-4-CF3) = N[C@@H](CCc1cc(F)c(C(F)(F)F)c(F)c1)C(=O)O; hPhe(3-Cl-4-CF3) = N[C@@H](CCc1ccc(C(F)(F)F)c(Cl)c1)C(=O)O; NPrPhe(4-CF3) = CCCN[C@@H](Cc1ccc(C(F)(F)F)cc1)C(=O)O; NEtPhe(4-CF3) = CCN[C@@H](Cc1ccc(C(F)(F)F)cc1)C(=O)O; NMeGly(cPent) = CN[C@H](C(=O)O)C1CCCC1; X44 = CC1(C)CN([*:1])[C@@H]1C(=O)[*:2]; X11 = CCC[C@](C)(N[*:1])C(=O)[*:2]; NMeD = CN[C@@H](CC(=O)O)C(=O)O; NMeL = CN[C@@H](CC(C)C)C(=O)O; Morpholide = C1CN(*)CCO1; NMeA = CN[C@@H](C)C(=O)O; Ac5c = NC1(C(=O)O)CCCC1; Aze = O=C(O)[C@@H]1CCN1; NPrGly = CCCNCC(=O)O; Sar = CNCC(=O)O

Columns and labels:
[1] = biological target: GDP-bound NRAS wild-type protein (Homo sapiens, UniProt P01111); assay: Binding to NRAS by surface plasmon resonance (SPR), Single Cycle Kinetics; conditions: for NRAS/KRAS (ratio of KD value for NRAS to KD value for KRAS) / NRAS/KRAS (ratio of KD value with respect to NRAS to KD value with respect to KRAS): SPR, GDP-bound NRAS wild-type protein vs GDP-bound KRAS wild-type protein; for NRAS/KRAS (ratio of KD value with respect to GDP-bound NRAS wild-type protein to KD value with respect to KRAS): SPR KD ratio NRAS/KRAS, class symbols
[2] = biological target: GDP-bound KRAS wild-type protein (Homo sapiens, UniProt P01116); assay: Binding to KRAS by surface plasmon resonance (SPR), Single Cycle Kinetics; conditions: GDP-bound KRAS wild-type protein, read-out: KRAS KD
[3] = biological target: GDP-bound HRAS wild-type protein (Homo sapiens, UniProt P01112); assay: Binding to HRAS by surface plasmon resonance (SPR), Single Cycle Kinetics; conditions: for HRAS/KRAS (ratio of KD value for HRAS to KD value for KRAS) / HRAS/KRAS (ratio of KD value with respect to HRAS to KD value with respect to KRAS): SPR, GDP-bound HRAS wild-type protein vs GDP-bound KRAS wild-type protein; for HRAS/KRAS (ratio of KD value with respect to GDP-bound HRAS wild-type protein to KD value with respect to KRAS): SPR KD ratio HRAS/KRAS, class symbols
[4] = SPR Single Cycle Kinetics, 1:1 binding model

GDP-bound HRAS wild-type protein, sequence (P01112 whole entry): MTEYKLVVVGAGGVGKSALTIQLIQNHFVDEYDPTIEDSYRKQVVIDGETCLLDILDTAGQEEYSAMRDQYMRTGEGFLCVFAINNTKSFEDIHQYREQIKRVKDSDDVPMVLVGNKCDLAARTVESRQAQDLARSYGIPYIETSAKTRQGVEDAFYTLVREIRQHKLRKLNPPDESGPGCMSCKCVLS
GDP-bound KRAS wild-type protein, sequence (P01116 whole entry): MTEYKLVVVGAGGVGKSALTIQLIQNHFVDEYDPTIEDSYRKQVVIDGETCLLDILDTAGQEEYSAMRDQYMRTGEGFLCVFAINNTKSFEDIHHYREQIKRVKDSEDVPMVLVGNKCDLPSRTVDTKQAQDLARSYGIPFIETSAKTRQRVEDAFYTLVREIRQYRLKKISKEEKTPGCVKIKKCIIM
GDP-bound NRAS wild-type protein, sequence (P01111 whole entry): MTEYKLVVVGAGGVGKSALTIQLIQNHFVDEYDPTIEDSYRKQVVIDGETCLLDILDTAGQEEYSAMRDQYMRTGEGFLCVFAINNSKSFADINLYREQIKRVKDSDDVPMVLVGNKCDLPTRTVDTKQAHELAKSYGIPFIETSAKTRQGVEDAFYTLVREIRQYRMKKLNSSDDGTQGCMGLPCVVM

Structure (SMILES) | NRAS/KRAS (ratio of KD value for NRAS to KD value for KRAS) [1] | Kd ([2]; SPR, Single Cycle Kinetics) | HRAS/KRAS (ratio of KD value for HRAS to KD value for KRAS) [3] | Kd [2, 4] | NRAS/KRAS (ratio of KD value with respect to GDP-bound NRAS wild-type protein to KD value with respect to KRAS) [1] | HRAS/KRAS (ratio of KD value with respect to GDP-bound HRAS wild-type protein to KD value with respect to KRAS) [3] | NRAS/KRAS (ratio of KD value with respect to NRAS to KD value with respect to KRAS) [1] | HRAS/KRAS (ratio of KD value with respect to HRAS to KD value with respect to KRAS) [3]
CCO[C@@H]1C[C@H]2C(=O)N(C)C3(CC(C)(C)C3)C(=O)N(C)[C@@H](C3CCCC3)C(=O)N(C)[C@H](C(=O)N(C)C)CC(=O)N(C)[C@H]3CCC/C=C/c4ccc(cc4)C[C@@H](C(=O)N(C)CC(=O)N[C@@H](CCc4cc(F)c(C(F)(F)F)c(F)c4)C(=O)N2C1)N1CC/C=C\C[C@@H](C1=O)N(C)C(=O)CN(C)C(=O)[C@H]([C@@H](C)CC)NC3=O [PP3060] | B (a compound having 3 or more and less than 10 is denoted as B) | 42 pM | B (a compound having 3 or more and less than 10 is denoted as B) | – | – | – | – | –
CC[C@H](C)[C@@H]1NC(=O)[C@H](CC(C)C)N(C)C(=O)C[C@@H](C(=O)N2CCOCC2)N(C)C(=O)[C@H](C2CCCC2)N(C)C(=O)C2(CCCC2)NC(=O)[C@@H]2CCCN2C(=O)[C@H](CCc2ccc(C(F)(F)F)c(Cl)c2)NC(=O)CN(C)C(=O)[C@H](Cc2ccc(C(F)(F)F)cc2)N(CC)C(=O)[C@@H]2CCN2C(=O)[C@H](C)N(C)C1=O [PP0002] ([NMeL]I[NMeA][Aze][NEtPhe(4-CF3)][Sar][hPhe(3-Cl-4-CF3)]P[Ac5c][NMeGly(cPent)][NMeD]-Morpholide; lactam N-11) | C (A compound having a KD ratio of 0.1 or more and less than 3 is denoted as C) | – | C (A compound having a KD ratio of 0.1 or more and less than 3 is denoted as C) | 180 pM | – | – | – | –
CC[C@H](C)[C@@H]1NC(=O)[C@H](CC2CC2)N(C)C(=O)C[C@@H](C(=O)N(C)C)N(C)C(=O)[C@H](C2CCCC2)N(C)C(=O)C2(CC(C)(C)C2)NC(=O)[C@@H]2C[C@@H](F)CN2C(=O)[C@H](CCc2cc(F)c(C(F)(F)F)c(F)c2)NC(=O)CN(C)C(=O)[C@H](Cc2ccc(C)cc2)N2CC/C=C\C[C@@H](C2=O)N(C)C(=O)CN(C)C1=O [PP2804] | – | – | – | 33 pM | A (a compound having 10 or more and less than 20 is denoted as A) | A (a compound having 10 or more and less than 20 is denoted as A) | – | –
CCCN1CC(=O)N(C)CC(=O)N(CCC)[C@@H](Cc2ccc(C(F)(F)F)cc2)C(=O)N(C)CC(=O)N[C@@H](CCc2ccc(C(F)(F)F)c(Cl)c2)C(=O)N2CCC[C@H]2C(=O)NC2(CCCC2)C(=O)N(C)[C@@H](C2CCCC2)C(=O)N(C)[C@H](C(=O)N2CCOCC2)CC(=O)N(C)[C@@H](CC(C)C)C(=O)N[C@@H]([C@@H](C)CC)C1=O [PP0253] ([NMeL]I[NPrGly][Sar][NPrPhe(4-CF3)][Sar][hPhe(3-Cl-4-CF3)]P[Ac5c][NMeGly(cPent)][NMeD]-Morpholide; lactam N-11) | B (a compound having 3 or more and less than 10 is denoted as B) | – | B (a compound having 3 or more and less than 10 is denoted as B) | 550 pM | – | – | – | –
CCC(CC)[C@H]1C(=O)N(C)[C@H](C(=O)N(C)C)CC(=O)N(C)[C@@H](COC)C(=O)N[C@@H]([C@@H](C)CC)C(=O)N(C)CC(=O)N(C)[C@H]2C/C=C\CCN(C2=O)[C@@H](Cc2ccc(C(F)(F)F)cc2)C(=O)N(C)CC(=O)N[C@@H](CCc2ccc(C(F)(F)F)c(Cl)c2)C(=O)N2CC3(CC3)C[C@H]2C(=O)NC2(CC(C)(C)C2)C(=O)N1C [PP2965] | – | – | – | 470 pM | AA (a compound having 20 or more is denoted as AA) | A (a compound having 10 or more and less than 20 is denoted as A) | – | –
CCO[C@@H]1C[C@H]2C(=O)NC3(CCC3)C(=O)N(C)[C@@H](C3CCCC3)C(=O)N(C)[C@H](C(=O)N3CCOCC3)CC(=O)N(C)[C@@H](CC(C)(C)C)C(=O)N[C@@H]([C@@H](C)CC)C(=O)N(C)CC(=O)N(C)[C@H]3CCCCN(C3=O)[C@@H](Cc3ccc(C(F)(F)F)cc3)C(=O)N(C)CC(=O)N[C@@H](CCc3cc(F)c(C(F)(F)F)c(F)c3)C(=O)N2C1 [PP0714] | – | – | – | 47 pM | – | – | C (A compound having a KD ratio of 0.1 or more and less than 3 is denoted as C) | B (a compound having 3 or more and less than 10 is denoted as B)
CCCN1C(=O)[C@@H]2CCN2C(=O)CN(C)C(=O)[C@H]([C@@H](C)CC)NC(=O)[C@H](CC(C)C)N(C)C(=O)C[C@@H](C(=O)N2CCOCC2)N(C)C(=O)[C@H](C2CCCC2)N(C)C(=O)[C@](C)(CCC)NC(=O)[C@@H]2CCCN2C(=O)[C@H](CCc2cc(F)c(C(F)(F)F)c(F)c2)NC(=O)CN(C)C(=O)[C@@H]1Cc1ccc(C(F)(F)F)cc1 [PP0794] ([NMeL]I[Sar][Aze][NPrPhe(4-CF3)][Sar][hPhe(3,5-F2-4-CF3)]P[X11][NMeGly(cPent)][NMeD]-Morpholide; lactam N-11) | – | – | – | 1500 pM | – | – | C (A compound having a KD ratio of 0.1 or more and less than 3 is denoted as C) | B (a compound having 3 or more and less than 10 is denoted as B)
CCCN1C(=O)[C@@H]2CCN2C(=O)[C@H](C)N(C)C(=O)[C@H]([C@@H](C)CC)NC(=O)[C@H](CC(C)C)NC(=O)C[C@@H](C(=O)N2CCOCC2)N(C)C(=O)[C@H](C2CCCC2)N(C)C(=O)C2(CCCC2)NC(=O)[C@@H]2CCCN2C(=O)[C@H](CCc2ccc(C(F)(F)F)c(Cl)c2)NC(=O)CN(C)C(=O)[C@@H]1Cc1ccc(C(F)(F)F)cc1 [PP0154] (LI[NMeA][Aze][NPrPhe(4-CF3)][Sar][hPhe(3-Cl-4-CF3)]P[Ac5c][NMeGly(cPent)][NMeD]-Morpholide; lactam N-11) | C (A compound having a KD ratio of 0.1 or more and less than 3 is denoted as C) | – | B (a compound having 3 or more and less than 10 is denoted as B) | 230 pM | – | – | – | –
CCO[C@@H]1C[C@H]2C(=O)NC3(CCC3)C(=O)N(C)[C@@H](C3CCCC3)C(=O)N(C)[C@H](C(=O)N(C)C)CC(=O)N(C)[C@@H](CC)C(=O)N[C@@H]([C@@H](C)CC)C(=O)N3CC[C@H]3C(=O)N(C)[C@H]3CC(C)=C(C)CN(C3=O)[C@@H](Cc3ccc(C(F)(F)F)cc3)C(=O)N(C)CC(=O)N[C@@H](CCc3cc(F)c(C(F)(F)F)c(F)c3)C(=O)N2C1 [PP1049] | C (A compound having a KD ratio of 0.1 or more and less than 3 is denoted as C) | 910 pM | C (A compound having a KD ratio of 0.1 or more and less than 3 is denoted as C) | – | – | – | – | –
CCCN1C(=O)CN(C)C(=O)[C@H]2N(CC2(C)C)C(=O)[C@H]([C@@H](C)CC)NC(=O)[C@H](CC(C)C)N(C)C(=O)C[C@@H](C(=O)N2CCOCC2)N(C)C(=O)[C@H](C2CCCC2)N(C)C(=O)C2(CCCC2)NC(=O)[C@@H]2CCCN2C(=O)[C@H](CCc2ccc(C(F)(F)F)c(Cl)c2)NC(=O)CN(C)C(=O)[C@@H]1Cc1ccc(C(F)(F)F)cc1 [PP0256] ([NMeL]I[X44][Sar][NPrPhe(4-CF3)][Sar][hPhe(3-Cl-4-CF3)]P[Ac5c][NMeGly(cPent)][NMeD]-Morpholide; lactam N-11) | B (a compound having 3 or more and less than 10 is denoted as B) | – | C (A compound having a KD ratio of 0.1 or more and less than 3 is denoted as C) | 990 pM | – | – | – | –
C=CC[C@H]1C(=O)N[C@@H]([C@@H](C)CC)C(=O)N(C)CC(=O)N(C)[C@H]2C/C=C\CCN(C2=O)[C@@H](Cc2ccc(C(F)(F)F)cc2)C(=O)N(C)CC(=O)N[C@@H](CCc2cc(F)c(C(F)(F)F)c(F)c2)C(=O)N2C[C@H](OCC)C[C@H]2C(=O)NC2(CCC2)C(=O)N(C)[C@@H](C2CCCC2)C(=O)N(C)[C@H](C(=O)N(C)C)CC(=O)N1C [PP1114, (2S,8S,12R,14S,20S,23S,27S,30S,36S,38Z)-27-allyl-20-cyclopentyl-8-[2-[3,5-difluoro-4-(trifluoromethyl)phenyl]ethyl]-12-ethoxy-N,N,4,19,22,26,32,35-octamethyl-30-[(1S)-1-methylpropyl]-3,6,9,15,18,21,25,28,31,34,42-undecaoxo-2-[[4-(trifluoromethyl)phenyl]methyl]spiro[1,4,7,10,16,19,22,26,29,32,35-undecazatricyclo[34.5.1.0^10,14]dotetracont-38-ene-17,1′-cyclobutane]-23-carboxamide] | A (a compound having 10 or more and less than 20 is denoted as A) | 54 pM | A (a compound having 10 or more and less than 20 is denoted as A) | – | – | – | – | –
CC[C@H](C)[C@@H]1NC(=O)[C@H](COC)N(C)C(=O)C[C@@H](C(=O)N2CCOCC2)N(C)C(=O)[C@H](C2CCCC2)N(C)C(=O)C2(CCCC2)NC(=O)[C@@H]2CC(F)(F)CN2C(=O)[C@H](CCc2cc(F)c(C(F)(F)F)c(F)c2)NC(=O)CN(C)C(=O)[C@H](Cc2ccc(C(F)(F)F)cc2)N2CCCCC[C@@H](C2=O)N(C)C(=O)CN(C)C1=O [PP0846] | B (a compound having 3 or more and less than 10 is denoted as B) | 990 pM | B (a compound having 3 or more and less than 10 is denoted as B) | – | – | – | – | –
C=CCN1CC(=O)N(C)[C@H]2C/C=C\CCN(C2=O)[C@@H](Cc2ccc(C(F)(F)F)cc2)C(=O)N(C)CC(=O)N[C@@H](CCc2cc(F)c(C(F)(F)F)c(F)c2)C(=O)N2C[C@H](OCC)C[C@H]2C(=O)NC2(CC(C)(C)C2)C(=O)N(C)[C@@H](C2CCCC2)C(=O)N(C)[C@H](C(=O)N(C)C)CC(=O)N(C)[C@@H](CCC)C(=O)N[C@@H]([C@@H](C)CC)C1=O [PP2102] | A (a compound having 10 or more and less than 20 is denoted as A) | 160 pM | A (a compound having 10 or more and less than 20 is denoted as A) | – | – | – | – | –
